Experimental data taken from patent US20210308196A1, “COMPOSITIONS AND METHODS TO PROMOTE HOST DEFENSE AND STIMULATE, EXPAND, AND/OR RESET T CELL REPERTOIRES” (EVOLVE BIOSYSTEMS, INC., priority 2018, published 2021).

Test system: IL-1β, IL-2, IL-5, IL-6, IL-8, IL-10, IL-22, IFNγ, TNFα
Assay: Fecal cytokines, multiplexed immunoassay (MSD U-PLEX Inflammation Panel 1)
Assay type: in vivo, human
Details: for IFNγ Median (SD) / IL-1β Median (SD) / IL-2 Median (SD) / IL-5 Median (SD) / IL-6 Median (SD) / IL-8 Median (SD) / IL-10 Median (SD) / IL-22 Median (SD) / TNFα Median (SD): infant feces
Procedure: Multiplexed Immunoassays. Interleukin (IL)-1β, IL-2, IL-5, IL-6, IL-8, IL-10, IL-22, interferon (IFN) γ, and tumor necrosis factor (TNF) α were quantified from 80 mg of stool diluted 1:10 in Meso Scale Discovery (MSD; Rockville, Md.) diluent using the U-PLEX Inflammation Panel 1 (human) Kit according to the manufacturer's instructions. Standards and samples were measured in duplicate and blank values were subtracted from all readings. The plate was then read on a Sector Imager 2400 MSD Discovery Workbench analysis software. Statistical Analysis. Demographic differences between Control and EVC001-fed infants was analyzed using Fisher's Exact test for categorical data and Wilcoxon rank sum (Mann-Whitney U) test for continuous data. […] The relationship between fecal calprotectin concentration and % Bifidobacteriaceae was quantified using Spearman's Rho correlation, and the differences in calprotectin concentration between high (>25%) and low (<25%) Bifidobacteriaceae abundance was assessed using the Wilcoxon rank sum test. One subject with abnormally high fecal calprotectin concentration (greater than 3 standard deviations above the mean of both treatment and control data) was considered an extreme outlier and removed from the aforementioned calprotectin analyses. Wilcoxon rank sum tests were performed to assess relative abundance for each bacterial taxa and cytokine concentration differences. For radar plots, medians were adjusted to log scale, then normalized within each cytokine group from 0 to 1. Differences overtime within each cytokine group were evaluated using the Wilcoxon rank sum test. P-values were adjusted using the Bonferroni-Holms method and considered statistically significant if P<0.05. Statistical analyses were applied to determine the significance of global cytokine profile as determined by computing a Bray-Curtis distance metric translated into a principal coordinate analysis and visualized with EMPeror. Global cytokine profile differences by group status were then determined using a permutational multivariate analysis of variance (PERMANOVA), and significant P-values were determined using 999 Monte Carlo permutations. To assess the relationship between the global cytokine profile and the microbiome, we used a Procrustes analysis. The taxonomic operational taxonomic unit (OTU) table at the family level was computed using QIIME, and the cytokine table was used to generate a distance matrix for each, using a weighted UniFrac for 16S and Bray-Curtis for the cytokine. We performed a principal coordinate analysis separately on the two matrices and used a Procrustes analysis as implemented in QIIME to rotate, translate, and scale the matrices. The resulting transformed matrices were plotted using EMPeror. P-values for the Procrustes analysis were generated using Monte Carlo simulations (n=999). Raw correlation statistics were assigned the likelihood of these associations to be true positive associations by computing P-values via a Fisher's Z transform to normalize the distribution of the correlation scores.

[1] = Day 40 compared to Day 6, within EVC001-fed infants
[2] = Day 60 compared to Day 6, within EVC001-fed infants
[3] = Day 6 (Baseline), before supplementation starts on Day 7

Bifidobacterium longum subsp. infantis EVC001 [B. infantis EVC001]
Fecal IFNγ level change over time [1]: significantly increased
Fecal IL-2 level change over time [1]: significantly lower
Fecal IL-5 level change over time [1]: significantly lower
Fecal IL-6 level change over time [1]: significantly lower
Fecal IL-10 level change over time [1]: significantly lower
Fecal IL-22 level change over time [1]: significantly lower
Fecal TNFα level change over time [1]: significantly lower
Fecal IFNγ level change over time [2]: significantly higher
Fecal IL-2 level change over time [2]: significantly lower
Fecal IL-5 level change over time [2]: significantly lower
Fecal IL-6 level change over time [2]: significantly lower
Fecal IL-10 level change over time [2]: significantly lower
Fecal TNFα level change over time [2]: significantly lower
Fecal IL-22 level change over time (Day 60 compared to Day 40, within EVC001-fed infants): significantly higher
Fecal cytokine levels overall (first 60 days postnatal, versus Control infants): significantly lower
IFNγ Median (SD) [3]: 0.29 pg/mg
IL-1β Median (SD) [3]: 38.65 pg/mg
IL-2 Median (SD) [3]: 48.13 pg/mg
IL-5 Median (SD) [3]: 16.53 pg/mg
IL-6 Median (SD) [3]: 9.29 pg/mg
IL-8 Median (SD) [3]: 48.35 pg/mg
IL-10 Median (SD) [3]: 8.76 pg/mg
IL-22 Median (SD) [3]: 4.22 pg/mg
TNFα Median (SD) [3]: 26.71 pg/mg
IL-2 Median (SD) (Day 40): 3.36 pg/mg
IL-5 Median (SD) (Day 40): 1.48 pg/mg
IL-6 Median (SD) (Day 40): 0.48 pg/mg
IL-10 Median (SD) (Day 40): 0.55 pg/mg
TNFα Median (SD) (Day 40): 2.7 pg/mg
IFNγ Median (SD) (Day 60): 26.74 pg/mg
IL-1β Median (SD) (Day 60): 13.22 pg/mg
IL-2 Median (SD) (Day 60): 3.16 pg/mg
IL-5 Median (SD) (Day 60): 1.85 pg/mg
IL-6 Median (SD) (Day 60): 0.71 pg/mg
IL-8 Median (SD) (Day 60): 70.13 pg/mg
IL-10 Median (SD) (Day 60): 0.46 pg/mg
IL-22 Median (SD) (Day 60): 3.54 pg/mg
TNFα Median (SD) (Day 60): 3.97 pg/mg
